Laboratory results taken from US10188639B2, “Methods of treating neurological, metabolic, and other disorders using enantiopure deuterium-enriched pioglitazone” (DeuteRx, LLC, priority 2014, dated 2019).
Like-named read-outs stand apart in the source and are kept apart here. Values belong to the compound of their own block, whether it stands above or below them.

Tests used:
[1] = plasma
Experimental: The plasma samples were incubated at 37° C. in duplicate (anticoagulant: K3EDTA). […] Samples were placed at −80° C. until the study was complete. […] The vortexed samples were centrifuged and 50 μL of supernatant was dispensed in a 96-well plate.
The deuterium in both enantiomers, d-S and d-R, can be lost by D/H exchange to give both protonated enantiomers, h-S and h-R with rate constants kDRR, kDRS, kDSR, and kDSS. At the same time, the protonated enantiomers h-S and h-R can exchange with enantiomerization rate constants kRS and kSR. All four compounds can also degrade with potentially different degradation rate constants kdSd, kdRd, khSd, and khRd.
Human and mouse plasma data were analyzed independently. […] Data in each species was analyzed using a stepwise approach.
The step between calculated time points was minimized in order to minimize the local error (proportional to the square of the step size) and the global error (proportional to the step size).

db/db mice = assay: db/db mouse model of type II diabetes, 10-day daily oral dosing; type: in vivo; settings: for non-essential fatty acids: 20 mg/kg daily oral gavage, 10 days, compared with h-rac-pio 30 mg/kg; for adiponectin: d-S-pio 20 mg/kg; for decrease of IL-1β / decrease of IL-6 / decrease of TNF-α: d-R-pio 20 mg/kg
Experimental: Body weights were measured throughout the study. Non-fasting blood glucose (10 μL by tail snip) was measured 4 hours prior to first dose, and animals were sorted and assigned to groups based on this measure. […] A terminal blood sample was collected for determination of serum levels of cholesterol, triglycerides, free fatty acids, adiponectin, serum amyloid A, and cytokines IL-1β, IL-6, TNF-α, and MCP-1, using standard analytical methods. Quantitative results were analyzed by statistical methods using, as appropriate, one- or two-way ANOVA or Kruskal-Wallis tests for differences followed by Sidak's, Dunnett's, or Dunn's post-test to determine differences vs. vehicle-treated control animals. All graphs were generated with GraphPad Prism version 6.0.2 (GraphPad Software, Inc., La Jolla, Calif.).

[2] = Body weight gain in male C57BL/6J mice on a standard diet; type: in vivo, mouse; settings: twice daily oral gavage for 11 days; overall daily dose h-rac-pio 30 mg/kg, d-S-pio 15 mg/kg, d-R-pio 15 mg/kg; vs. vehicle
Experimental: Male C57BL/6J mice (about 28 g body weight) were acclimated singly-housed for one week to a reverse light/dark cycle with free access to water and standard maintenance diet. Animals were then handled daily for one week followed by another 7 days of twice daily dosing with vehicle (0.5% methylcellulose in water) by oral gavage. […] Body weights were measured twice daily, prior to each dosing, to adjust individual dosing volumes to actual body weights.

[3] = Pharmacokinetics in male C57BL/6 mice after oral gavage for 5 days; settings: day 5, oral gavage daily; for t1/2 (h) d-S: elimination half-life of d-S-pio; for t1/2 (h) h-R: elimination half-life of h-R-pio; for t1/2 (h) h-R / t1/2 (h) h-S: h-rac-pio 30 mg/kg, d-S-pio and d-R-pio 15 mg/kg; for t1/2 (h) h-S: elimination half-life of h-S-pio
Experimental: (§1) Animals were then euthanized. Plasma was separated by centrifugation and stored at −80° C. until analyzed.
(§2) Concentrations were calculated by interpolation on standard curves generated from mouse plasma samples spiked with known concentrations of the pure analytes.

[4] = target: human recombinant monoamine oxidase B (Homo sapiens (Human), UniProt P27338); assay: Monoamine oxidase B (MAO-B) inhibition, luminescence assay; type: biochemical
Experimental: The mixtures were incubated at 22° C. for 5 min. Substrate (D-luciferin derivative) was added, and then the mixture was incubated at 37° C. for 60 min. The reaction was stopped by addition of the detection reagent containing luciferase. Luminescence was read after standing for 60 min at room temperature.
Results were expressed as a percentage of the luminescence of the control (enzyme+substrate). IC50 values were obtained by fitting experimental data (mean % luminescence as function of concentration) to the Hill equation with variable slope using non-linear regression analysis.

[5] = mouse, in vivo, po, 15 mg/kg
Experimental: as §1, §2

[6] = 10 days daily oral, h-rac-pio 30 mg/kg, vs. vehicle

human recombinant monoamine oxidase B, sequence (P27338 whole entry): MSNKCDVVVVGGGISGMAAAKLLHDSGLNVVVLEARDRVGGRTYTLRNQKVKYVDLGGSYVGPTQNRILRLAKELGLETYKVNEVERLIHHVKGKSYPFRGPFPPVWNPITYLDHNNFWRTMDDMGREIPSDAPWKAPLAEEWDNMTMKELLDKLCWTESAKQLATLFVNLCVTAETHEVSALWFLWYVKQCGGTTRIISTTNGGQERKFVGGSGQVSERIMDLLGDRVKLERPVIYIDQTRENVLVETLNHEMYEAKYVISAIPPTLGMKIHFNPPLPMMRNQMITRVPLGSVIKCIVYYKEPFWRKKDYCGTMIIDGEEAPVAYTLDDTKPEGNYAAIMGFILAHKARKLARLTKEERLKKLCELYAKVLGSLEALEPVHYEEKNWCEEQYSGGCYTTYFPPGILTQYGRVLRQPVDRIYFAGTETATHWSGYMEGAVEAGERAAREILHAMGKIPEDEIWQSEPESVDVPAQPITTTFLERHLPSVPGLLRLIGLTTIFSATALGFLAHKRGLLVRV

t1/2 of h-R-pio, ln(2)/kRS ([1]; human): 1.6 h | t1/2 of h-S-pio, ln(2)/kSR ([1]; human): 1.6 h | t1/2 of h-R-pio, ln(2)/kRS ([1]; mouse): 0.9 h | t1/2 of h-S-pio, ln(2)/kSR ([1]; mouse): 0.75 h
SMILES: [2H]C1(Cc2ccc(OCCc3ccc(CC)cn3)cc2)SC(=O)NC1=O (racemic) [d-rac-pio, rac-5-({p-[2-(5-Ethyl-2-pyridyl)ethoxy]phenyl}methyl)-(5-^2H)-1,3-thiazolidine-2,4-dione]

SMILES: [2H][C@@]1(Cc2ccc(OCCc3ccc(CC)cn3)cc2)SC(=O)NC1=O [d-S-pio, (S)-5-({p-[2-(5-Ethyl-2-pyridyl)ethoxy]phenyl}methyl)-(5-^2H)-1,3-thiazolidine-2,4-dione]
non-essential fatty acids (db/db mice): a similar trend was observed | adiponectin (db/db mice; [6]): significantly increased | percent body weight difference versus day 1 body weight [2]: statistically significant increase | t1/2 (h) d-S ([3]; 15 mg/kg): 2.3 h | t1/2 (h) h-R [3]: 3.2 h | t1/2 (h) h-S [3]: 3.1 h

SMILES: [2H][C@]1(Cc2ccc(OCCc3ccc(CC)cn3)cc2)SC(=O)NC1=O [d-R-pio, (R)-5-({p-[2-(5-Ethyl-2-pyridyl)ethoxy]phenyl}methyl)-(5-^2H)-1,3-thiazolidine-2,4-dione]
difference in inhibition efficacy between d-R-pio and d-S-pio [4]: greater than 5 fold | non-essential fatty acids (db/db mice): a similar trend was observed | decrease of IL-1β (db/db mice; [6]): trending | decrease of IL-6 (db/db mice; [6]): trending | decrease of TNF-α (db/db mice; [6]): trending | percent body weight difference versus day 1 body weight [2]: did not increase percent body weight difference over vehicle | tmax (h) d-R [5]: 1 h | t1/2 (h) d-S ([3]; 15 mg/kg): 0.8 h | t1/2 (h) h-R [3]: 2.5 h | t1/2 (h) h-S [3]: 2.5 h | AUC0-inf (ng · h/mL) d-R ([3]; plasma d-R-pio, 15 mg/kg): 18892 ng·h/mL | Cmax (ng/mL) d-R ([3]; plasma d-R-pio, 15 mg/kg): 6360 ng/mL

SMILES: CCc1ccc(CCOc2ccc(CC3SC(=O)NC3=O)cc2)nc1 (racemic) [h-rac-pio, rac-5-({p-[2-(5-Ethyl-2-pyridyl)ethoxy]phenyl}methyl)-1,3-thiazolidine-2,4-dione, reference compound]
decrease of IL-1β (db/db mice; [6]): trending | decrease of IL-6 (db/db mice; [6]): trending | decrease of TNF-α (db/db mice; [6]): trending | adiponectin (db/db mice; [6]): significantly increased | insulin (db/db mice; [6]): significantly decreased | percent body weight difference versus day 1 body weight [2]: statistically significant increase
